Reference: ChEMBL document CHEMBL5214954, “Identification of PI3K/HDAC Dual-targeted inhibitors with subtype selectivity as potential therapeutic agents against solid Tumors: Building HDAC6 potency in a Quinazolinone-based PI3Kδ-selective template” (Bioorg Med Chem, 2022)

Experiments:
[1] = target: T1, Phosphatidylinositol 4,5-bisphosphate 3-kinase catalytic subunit delta isoform (Homo sapiens, UniProt O00329); experiment: Inhibition of PI3Kdelta (unknown origin) measured by ADP-Glo assay
T1 sequence (O00329 whole entry): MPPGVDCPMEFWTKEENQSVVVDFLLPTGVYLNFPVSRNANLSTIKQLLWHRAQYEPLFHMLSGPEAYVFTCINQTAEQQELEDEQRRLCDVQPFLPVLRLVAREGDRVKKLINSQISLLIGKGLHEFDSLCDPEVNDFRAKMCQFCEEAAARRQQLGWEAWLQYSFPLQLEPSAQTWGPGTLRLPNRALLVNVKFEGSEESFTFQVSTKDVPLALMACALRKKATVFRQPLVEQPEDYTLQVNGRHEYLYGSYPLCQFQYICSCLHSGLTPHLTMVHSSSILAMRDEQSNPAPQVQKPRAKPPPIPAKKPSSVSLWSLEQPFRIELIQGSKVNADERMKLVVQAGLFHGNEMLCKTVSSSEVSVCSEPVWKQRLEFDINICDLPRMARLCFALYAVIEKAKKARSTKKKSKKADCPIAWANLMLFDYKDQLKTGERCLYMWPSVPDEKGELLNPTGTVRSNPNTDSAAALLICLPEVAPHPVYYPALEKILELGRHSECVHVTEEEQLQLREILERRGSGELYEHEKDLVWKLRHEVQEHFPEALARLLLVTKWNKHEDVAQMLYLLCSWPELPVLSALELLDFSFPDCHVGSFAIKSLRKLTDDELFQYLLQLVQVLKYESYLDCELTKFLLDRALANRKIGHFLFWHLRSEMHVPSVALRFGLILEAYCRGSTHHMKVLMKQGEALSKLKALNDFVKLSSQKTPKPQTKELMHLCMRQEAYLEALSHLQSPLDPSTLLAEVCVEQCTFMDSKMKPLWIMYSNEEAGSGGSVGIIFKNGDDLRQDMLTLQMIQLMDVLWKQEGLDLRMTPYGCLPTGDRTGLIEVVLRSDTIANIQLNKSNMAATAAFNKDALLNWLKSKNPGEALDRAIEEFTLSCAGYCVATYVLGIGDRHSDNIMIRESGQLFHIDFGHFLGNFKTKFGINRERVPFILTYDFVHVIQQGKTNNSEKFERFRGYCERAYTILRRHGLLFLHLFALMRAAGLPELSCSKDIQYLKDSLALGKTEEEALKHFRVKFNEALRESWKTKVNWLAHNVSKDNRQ

[2] = target: T2, Protein deacetylase HDAC6 (Homo sapiens, UniProt Q9UBN7)
T2 sequence (Q9UBN7 whole entry): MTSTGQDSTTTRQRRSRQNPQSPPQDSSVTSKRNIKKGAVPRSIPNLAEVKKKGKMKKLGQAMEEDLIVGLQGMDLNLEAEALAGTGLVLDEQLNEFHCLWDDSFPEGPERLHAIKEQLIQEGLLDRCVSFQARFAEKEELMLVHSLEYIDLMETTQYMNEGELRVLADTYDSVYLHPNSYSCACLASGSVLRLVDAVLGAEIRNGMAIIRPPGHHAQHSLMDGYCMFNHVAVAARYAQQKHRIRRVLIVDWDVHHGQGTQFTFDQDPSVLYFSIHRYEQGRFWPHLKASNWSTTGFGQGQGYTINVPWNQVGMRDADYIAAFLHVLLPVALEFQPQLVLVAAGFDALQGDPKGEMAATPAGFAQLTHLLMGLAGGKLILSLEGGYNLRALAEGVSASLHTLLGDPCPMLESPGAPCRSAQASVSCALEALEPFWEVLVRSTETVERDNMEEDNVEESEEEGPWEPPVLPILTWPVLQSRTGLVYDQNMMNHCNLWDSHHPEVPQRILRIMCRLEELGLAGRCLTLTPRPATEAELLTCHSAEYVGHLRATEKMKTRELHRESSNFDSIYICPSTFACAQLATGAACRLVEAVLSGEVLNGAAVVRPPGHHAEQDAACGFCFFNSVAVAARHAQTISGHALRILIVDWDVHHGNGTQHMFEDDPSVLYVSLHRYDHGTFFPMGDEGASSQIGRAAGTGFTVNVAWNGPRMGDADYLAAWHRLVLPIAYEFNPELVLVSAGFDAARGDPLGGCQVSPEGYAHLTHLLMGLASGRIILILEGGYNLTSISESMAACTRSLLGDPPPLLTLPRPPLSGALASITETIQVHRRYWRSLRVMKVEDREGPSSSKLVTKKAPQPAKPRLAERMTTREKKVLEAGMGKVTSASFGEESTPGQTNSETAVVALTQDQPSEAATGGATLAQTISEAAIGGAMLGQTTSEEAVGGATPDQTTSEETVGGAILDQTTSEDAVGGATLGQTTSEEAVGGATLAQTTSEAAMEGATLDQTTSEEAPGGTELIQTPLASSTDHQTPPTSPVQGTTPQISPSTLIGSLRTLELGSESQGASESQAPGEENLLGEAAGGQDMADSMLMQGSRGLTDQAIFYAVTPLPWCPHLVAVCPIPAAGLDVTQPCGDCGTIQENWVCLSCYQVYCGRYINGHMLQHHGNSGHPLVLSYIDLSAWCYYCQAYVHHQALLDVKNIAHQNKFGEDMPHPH
Description: Inhibition of HDAC6 (unknown origin) measured by fluorescence based assay

Histone deacetylase 1 = Histone deacetylase 1 (Homo sapiens, UniProt Q13547)
Histone deacetylase 1, sequence (Q13547 whole entry): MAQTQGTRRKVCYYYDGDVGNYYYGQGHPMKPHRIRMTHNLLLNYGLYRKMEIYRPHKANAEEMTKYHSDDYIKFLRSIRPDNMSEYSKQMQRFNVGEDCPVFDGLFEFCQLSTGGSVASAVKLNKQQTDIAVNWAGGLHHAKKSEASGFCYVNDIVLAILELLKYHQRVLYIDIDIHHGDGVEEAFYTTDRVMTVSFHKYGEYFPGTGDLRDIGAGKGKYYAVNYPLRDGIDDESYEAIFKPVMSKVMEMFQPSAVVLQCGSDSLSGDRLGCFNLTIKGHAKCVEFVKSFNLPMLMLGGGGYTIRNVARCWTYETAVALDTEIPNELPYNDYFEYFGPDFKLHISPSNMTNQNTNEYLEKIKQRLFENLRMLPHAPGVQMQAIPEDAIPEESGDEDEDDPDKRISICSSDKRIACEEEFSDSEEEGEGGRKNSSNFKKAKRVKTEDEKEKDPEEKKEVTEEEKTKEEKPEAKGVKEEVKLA
Description: Inhibition of HDAC1 (unknown origin) measured by fluorescence based assay

[3] = Cytotoxicity against HUVEC cells incubated for 72 hrs by CCK-8 assay; details: human
KM12 = experiment: Antiproliferative activity against human KM12 cells incubated for 72 hrs by CCK-8 assay; assay type: functional, cell-based; details: KM12, 72 h
SU-DHL-6 = experiment: Antiproliferative activity against human SU-DHL-6 cells incubated for 72 hrs by CCK-8 assay; assay type: functional, cell-based; details: SU-DHL-6, 72 h
T47D = experiment: Antiproliferative activity against human T47D cells incubated for 72 hrs by CCK-8 assay; assay type: functional, cell-based
HCT-116 = experiment: Antiproliferative activity against human HCT-116 cells incubated for 72 hrs by CCK-8 assay; assay type: functional, cell-based; details: HCT-116, 72 h

Row | SMILES | IC50 [1] | IC50 [2] | IC50 (Histone deacetylase 1) | also measured
1 | N#Cc1c(N)nc(N)nc1N1CC2(CC2)C[C@H]1c1nc2cccc(Cl)c2c(=O)n1Cc1cc(C(=O)NO)no1 | 6.9 nM | 604 nM | – | –
2 | N#Cc1c(N)nc(N)nc1N1C[C@H](OC(=O)NCc2ccc(C(=O)NO)cc2)C[C@H]1c1nc2cccc(Cl)c2c(=O)n1-c1ccccc1 | 1.6 nM | 87 nM | 271 nM | –
3 | N#Cc1c(N)nc(N)nc1N1CC2(CC2)C[C@H]1c1nc(NCc2ccc(C(=O)NO)cc2)c2c(Cl)cccc2n1 | – | 398 nM | – | –
4 | N#Cc1c(N)nc(N)nc1N1CCC[C@H]1c1nc2cccc(Cl)c2c(=O)n1Cc1ccc(C(=O)NO)s1 | – | 67 nM | 111 nM | –
5 | Cn1c([C@@H]2C[C@@H](OC(=O)NCc3ccc(C(=O)NO)s3)CN2c2nc(N)nc(N)c2C#N)nc2cccc(Cl)c2c1=O | 16 nM | 43 nM | 182 nM | –
6 | CN(Cc1ccc(C(=O)NO)cc1)C(=O)O[C@@H]1C[C@@H](c2nc3cccc(Cl)c3c(=O)n2C)N(c2nc(N)nc(N)c2C#N)C1 | 42 nM | 11 nM | 260 nM | –
7 | N#Cc1c(N)nc(N)nc1N1CCC[C@H]1c1nc2cccc(Cl)c2c(=O)n1Cc1ccc(C(=O)NO)cc1 | – | 280 nM | – | –
8 | N#Cc1c(N)nc(N)nc1N1CC2(CC2)C[C@H]1c1nc2cccc(Cl)c2c(=O)n1Cc1ccc(C(=O)NO)cc1 | 6.1 nM | 331 nM | – | –
9 | N#Cc1c(N)nc(N)nc1N1C[C@H](OC(=O)NCc2ccc(C(=O)NO)cc2)C[C@H]1c1nc2cccc(F)c2c(=O)n1-c1ccccc1 | 24 nM | – | – | –
10 | CC[C@H](Nc1nc(N)nc(N)c1C#N)c1nc2cccc(Cl)c2c(=O)n1Cc1ccc(C(=O)NO)s1 | – | 45 nM | 198 nM | –
11 | Cn1c([C@@H]2C[C@@H](OCc3ccc(C(=O)NO)s3)CN2c2nc(N)nc(N)c2C#N)nc2cccc(Cl)c2c1=O | 42 nM | 13 nM | 88 nM | –
12 | C[C@H](Nc1nc(N)nc(N)c1C#N)c1nc2cccc(Cl)c2c(=O)n1Cc1ccc(C(=O)NO)s1 | – | 66 nM | 214 nM | –
13 | O=C(CCCCCCNC(=O)c1cnc(N(c2ccccc2)c2ccccc2)nc1)NO [RICOLINOSTAT] | – | – | – | IC50 at 72 h [3]: 13600 nM; IC50 (KM12): 2150 nM; IC50 (SU-DHL-6): 830 nM; IC50 (T47D): 710 nM; IC50 (HCT-116): 1850 nM
14 | O=C(NO)c1ccc(Cn2c([C@@H]3CC4(CC4)CN3c3ncnc4[nH]cnc34)nc3cccc(F)c3c2=O)cc1 | 136 nM | 28 nM | 360 nM | –
15 | N#Cc1c(N)nc(N)nc1N1CC2(CC2)C[C@H]1c1nc2cccc(F)c2c(=O)n1Cc1ccc(C(=O)NO)cc1 | 33 nM | 27 nM | 287 nM | –
16 | Cn1c([C@@H]2C[C@@H](OC(=O)NCCc3ccc(C(=O)NO)cc3)CN2c2nc(N)nc(N)c2C#N)nc2cccc(Cl)c2c1=O | 22 nM | 36 nM | 288 nM | –
17 | N#Cc1c(N)nc(N)nc1N1CCC[C@H]1c1nc(NCc2ccc(C(=O)NO)cc2)c2c(Cl)cccc2n1 | – | 267 nM | – | –
19 | N#Cc1c(N)nc(N)nc1N1CC2(CC2)C[C@H]1c1nc(NCCc2ccc(C(=O)NO)cc2)c2c(Cl)cccc2n1 | – | 219 nM | – | –
20 | N#Cc1c(N)nc(N)nc1N1C[C@@H](OC(=O)NCc2ccc(C(=O)NO)cc2)C[C@H]1c1nc2cccc(Cl)c2c(=O)n1-c1ccccc1 | 6.8 nM | 168 nM | – | –
21 | Cn1c([C@@H]2C[C@@H](OCc3ccc(C(=O)NO)cc3)CN2c2nc(N)nc(N)c2C#N)nc2cccc(Cl)c2c1=O | 75 nM | 13 nM | 72 nM | –
22 | CC[C@H](Nc1ncnc2[nH]cnc12)c1nc2cccc(F)c2c(=O)n1CCCCCC(=O)NO | 36 nM | 121 nM | 85 nM | –
23 | Cn1c([C@@H]2C[C@@H](OC(=O)NCc3ccc(C(=O)NO)cc3)CN2c2nc(N)nc(N)c2C#N)nc2cccc(Cl)c2c1=O | 18 nM | 27 nM | 102 nM | –
24 | N#Cc1c(N)nc(N)nc1N1CC2(CC2)C[C@H]1c1nc2cccc(F)c2c(=O)n1Cc1ccc(C(=O)NO)s1 | 20 nM | 32 nM | 82 nM | –
25 | CC[C@H](Nc1ncnc2[nH]cnc12)c1nc2cccc(F)c2c(=O)n1Cc1ccc(C(=O)NO)cc1 | 99 nM | 45 nM | 244 nM | –
26 | CC[C@H](Nc1ncnc2[nH]cnc12)c1nc2cccc(F)c2c(=O)n1-c1ccccc1 [IDELALISIB] | – | – | – | IC50 at 72 h [3]: 38200 nM; IC50 (KM12): 960 nM; IC50 (SU-DHL-6): 53 nM; IC50 (T47D): 510 nM; IC50 (HCT-116): 2960 nM
